Assay results: patent US9107415B2, “2-(substituted-phenyl)-cyclopentane-1,3-dione compounds, and derivatives thereof” (Syngenta Limited, priority 2011, dated 2015)

Assays:
Assay type in all cases: in vivo
[1] = test system: Spring Barley “Harrington”; assay: Biological Example 4B post-emergence phytotoxicity on cereal crops; details: cloquintocet-mexyl 50 g/ha, 14 DAA, technical compound in IF50 + Adigor, mean of two
Avena fatua (AVEFA) [2] = assay: Biological Example 1 glasshouse screen, post-emergence herbicidal activity; details: 312 h, application rate 250 g/ha, evaluated after 13 days, read-out: AVEFA percentage phytotoxicity
In short: (§1)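 Pots in a glasshouse (24/16°C day/night, 14 h light, 65% humidity) were sprayed one day after sowing (pre-emergence) or after 8 days (post-emergence), using acetone/water (50:50) with 0.5% Tween 20. Phytotoxicity was scored visually as % damage (0-100) 13 days after application.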

Lolium perenne (LOLPE) [3] = assay: as above; details: 312 h, application rate 250 g/ha, evaluated after 13 days, read-out: LOLPE percentage phytotoxicity
In short: as §1

[4] = test system: Alopecurus myosuroides (ALOMY); assay: Biological Example 4B (not-previously-formulated compounds) post-emergence herbicidal activity on grassy weeds; details: 14 DAA, technical compound in IF50 + Adigor, mean of two
Protocol: (§2) Seeds of a variety of test species are sown in standard soil in pots. After cultivation for 14 days under controlled conditions in a glasshouse (at 22/16°C., day/night; 16 hours light; 65% humidity), the plants are sprayed with an aqueous spray solution derived from the formulation of the technical active ingredient dissolved in acetone plus IF50 containing
(§3) 10.56 wt % Emulsogen™EL (castor oil ethoxylate, CAS Registry number 61791-12-6)
(§4) 42.22 wt % N-Methyl pyrrolidone
(§5) 42.22 wt % dipropylene glycol monoethyl ether
(§6) at a 1:20 ratio of (technical active ingredient:IF50). The adjuvant Adigor™(an adjuvant containing inter alia methylated rapeseed oil, e.g. available from Syngenta) is added to form a 0.5% v/v solution. The test plants are then grown on under controlled conditions in the glasshouse (at 22/16°C., day/night; 16 hours light; 65% humidity) and are watered twice daily. After 14 days the test is evaluated (100%=total damage to plant; 0%=no damage to plant).
(§7) […] Herbicidal activity (phytotoxicity) is evaluated visually, and an assessed percentage phytotoxicity score is given for each herbicidal application on each plant species (with 100%=total damage to plant; 0%=no damage to plant). Two repetitions are made for each experiment, and the mean herbicidal activity (phytotoxicity) data is reported.
(§8) Test plants: Avena fatua (AVEFA), Lolium multiflorum (LOLMU), Setaria viridis (SETVI), Poa annua (POAAN), Alopecurus myosuroides (ALOMY). All five of these are grassy monocotyledonous weeds.

Avena fatua (AVEFA) [5] = assay: as above; details: 14 DAA, technical compound in IF50 + Adigor, mean of two
Protocol: as §2, §3, §4, §5, §6, §7, §8

Setaria viridis (SETVI) = assay: as above; details: 14 DAA, technical compound in IF50 + Adigor, mean of two
Protocol: as §2, §3, §4, §5, §6, §7, §8

Poa annua (POAAN) = assay: as above; details: 14 DAA, technical compound in IF50 + Adigor, mean of two
Protocol: as §2, §3, §4, §5, §6, §7, §8

[6] = test system: Alopecurus myosuroides (ALOMY); assay: Biological Example 1 glasshouse screen, post-emergence herbicidal activity; details: 312 h, application rate 250 g/ha, evaluated after 13 days, read-out: ALOMY percentage phytotoxicity
In short: (§9)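 Read-out: visual percentage phytotoxicity at 13 days, 0% no damage to 100% total damage. Spray solution of unformulated compound in 50:50 acetone/water plus 0.5% Tween 20, applied to potted plants one day after sowing (pre) or after 8 days' growth (post).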

[7] = test system: Echinochloa crus-galli (ECHCG); assay: as above; details: 312 h, application rate 250 g/ha, evaluated after 13 days, read-out: ECHCG percentage phytotoxicity
In short: as §9

[8] = test system: Lolium multiflorum (LOLMU); assay: Biological Example 4B (not-previously-formulated compounds) post-emergence herbicidal activity on grassy weeds; details: 14 DAA, technical compound in IF50 + Adigor, mean of two
Protocol: as §2, §3, §4, §5, §6
(§10) Post-emergence herbicidal activity (phytotoxicity) data, on certain grassy monocotyledonous weeds and cereal crops in a glasshouse, are measured 14 days after application of the herbicide (14 DAA), for (a) a […] the same time as the herbicide, and (b) for a post-emergence application rate of 30 g/ha of the test herbicide with 50 g/ha of cloquintocet-mexyl safener applied at substantially the same time as the herbicide. Herbicidal activity (phytotoxicity) is evaluated visually, and an assessed percentage phytotoxicity score is given for each herbicidal application on each plant species (with 100%=total damage to plant; 0%=no damage to plant). Two repetitions are made for each experiment, and the mean herbicidal activity (phytotoxicity) data is reported.
as §8

[9] = test system: Alopecurus myosuroides (ALOMY); assay: Biological Example 1 glasshouse screen, pre-emergence herbicidal activity; details: 312 h, application rate 250 g/ha, evaluated after 13 days, read-out: ALOMY percentage phytotoxicity
In short: as §9

[10] = test system: Echinochloa crus-galli (ECHCG); assay: as above; details: 312 h, application rate 250 g/ha, evaluated after 13 days, read-out: ECHCG percentage phytotoxicity
In short: as §9

Spring Wheat “Teal” = assay: Biological Example 4B post-emergence phytotoxicity on cereal crops; details: 14 DAA, technical compound in IF50 + Adigor, mean of two
Protocol: as §2, §3, §4, §5, §6, §10

[11] = test system: Spring Barley “Harrington”; assay: as above; details: 14 DAA, technical compound in IF50 + Adigor, mean of two
Protocol: as §2, §3, §4, §5, §6
Post-emergence herbicidal activity (phytotoxicity) data, on certain grassy monocotyledonous weeds and cereal crops in a glasshouse, are measured 14 days after application of the herbicide (14 DAA), for (a) a post-emergence application rate of 60 g/ha of the test herbicide with or without 50 g/ha of cloquintocet-mexyl safener applied at substantially the same time as the herbicide, and (b) for a post-emergence application rate of 30 g/ha of the test herbicide with 50 g/ha of cloquintocet-mexyl safener applied at substantially the same time as the herbicide. Herbicidal activity (phytotoxicity) is evaluated visually, and an assessed percentage phytotoxicity score is given for each herbicidal application on each plant species (with 100%=total damage to plant; 0%=no damage to plant). Two repetitions are made for each experiment, and the mean herbicidal activity (phytotoxicity) data is reported.

Winter Barley “Suzuka” = assay: as above; details: 14 DAA, technical compound in IF50 + Adigor, mean of two
Protocol: as §2, §3, §4, §5, §6, §7

Winter Wheat “Hereward” = assay: as above; details: 14 DAA, technical compound in IF50 + Adigor, mean of two
Protocol: as §2, §3, §4, §5, §6, §7

Avena fatua (AVEFA) [12] = assay: Biological Example 1 glasshouse screen, pre-emergence herbicidal activity; details: 312 h, application rate 250 g/ha, evaluated after 13 days, read-out: AVEFA percentage phytotoxicity
In short: as §1

Lolium perenne (LOLPE) [13] = assay: as above; details: 312 h, application rate 250 g/ha, evaluated after 13 days, read-out: LOLPE percentage phytotoxicity
In short: as §1

[14] = 7.5 g/ha, cloquintocet-mexyl 50 g/ha
[15] = 15 g/ha, cloquintocet-mexyl 50 g/ha
[16] = 30 g/ha, cloquintocet-mexyl 50 g/ha
[17] = 60 g/ha, cloquintocet-mexyl 0 g/ha
[18] = 60 g/ha, cloquintocet-mexyl 50 g/ha

`CC#Cc1cc(C)c(C2C(=O)CC(Cc3ccccn3)C2=O)c(CC)c1` (centres unmarked) [Compound A-26] was tested, and the “Spring Barley “Harrington” phytotoxicity (%)” value ([1]; 7.5 g/ha) was 10%, the “Spring Barley “Harrington” phytotoxicity (%)” value ([1]; 15 g/ha) was 80% and the pest or weed control at 250 g/ha (Avena fatua (AVEFA) [2]) was 100%. The pest or weed control at 250 g/ha (Lolium perenne (LOLPE) [3]) was 100%, the ALOMY % phytotoxicity [4, 14] was 97% and the ALOMY % phytotoxicity [4, 15] was 99%. It also gave an ALOMY % phytotoxicity [4, 16] of 100%, an ALOMY % phytotoxicity [4, 17] of 100% and an ALOMY % phytotoxicity [4, 18] of 100%. For the same compound, the AVEFA % phytotoxicity (Avena fatua (AVEFA) [5]; [14]) was 83%, the AVEFA % phytotoxicity (Avena fatua (AVEFA) [5]; [15]) was 99% and the AVEFA % phytotoxicity (Avena fatua (AVEFA) [5]; [16]) was 100%. For the same compound, the AVEFA % phytotoxicity (Avena fatua (AVEFA) [5]; [17]) was 100%, the AVEFA % phytotoxicity (Avena fatua (AVEFA) [5]; [18]) was 100% and the SETVI % phytotoxicity (Setaria viridis (SETVI); [14]) was 68%. For the same compound, the SETVI % phytotoxicity (Setaria viridis (SETVI); [15]) was 95%, the SETVI % phytotoxicity (Setaria viridis (SETVI); [16]) was 100% and the SETVI % phytotoxicity (Setaria viridis (SETVI); [17]) was 100%. For the same compound, the SETVI % phytotoxicity (Setaria viridis (SETVI); [18]) was 100%, the POAAN % phytotoxicity (Poa annua (POAAN); [14]) was 0% and the POAAN % phytotoxicity (Poa annua (POAAN); [15]) was 13%. The POAAN % phytotoxicity (Poa annua (POAAN); [16]) was 33%, the POAAN % phytotoxicity (Poa annua (POAAN); [17]) was 73% and the POAAN % phytotoxicity (Poa annua (POAAN); [18]) was 70%. It also gave a pest or weed control at 250 g/ha [6] of 100%, a pest or weed control at 250 g/ha [7] of 100% and an LOLMU % phytotoxicity [8, 14] of 90%. It also gave an LOLMU % phytotoxicity [8, 15] of 100%, an LOLMU % phytotoxicity [8, 16] of 100% and an LOLMU % phytotoxicity [8, 17] of 100%. For the same compound, the LOLMU % phytotoxicity [8, 18] was 100%, the pest or weed control at 250 g/ha [9] was 100% and the pest or weed control at 250 g/ha [10] was 100%. For the same compound, the “Spring Wheat “Teal” phytotoxicity (%)” value (Spring Wheat “Teal”; [14]) was 23%, the “Spring Wheat “Teal” phytotoxicity (%)” value (Spring Wheat “Teal”; [15]) was 78% and the “Spring Wheat “Teal” phytotoxicity (%)” value (Spring Wheat “Teal”; [16]) was 93%. For the same compound, the “Spring Wheat “Teal” phytotoxicity (%)” value (Spring Wheat “Teal”; [17]) was 100%, the “Spring Wheat “Teal” phytotoxicity (%)” value (Spring Wheat “Teal”; [18]) was 97% and the “Spring Barley “Harrington” phytotoxicity (%)” value [11, 16] was 99%. For the same compound, the “Spring Barley “Harrington” phytotoxicity (%)” value [11, 17] was 100%, the “Spring Barley “Harrington” phytotoxicity (%)” value [11, 18] was 100% and the “Winter Barley “Suzuka” phytotoxicity (%)” value (Winter Barley “Suzuka”; [14]) was 4%. For the same compound, the “Winter Barley “Suzuka” phytotoxicity (%)” value (Winter Barley “Suzuka”; [15]) was 53%, the “Winter Barley “Suzuka” phytotoxicity (%)” value (Winter Barley “Suzuka”; [16]) was 100% and the “Winter Barley “Suzuka” phytotoxicity (%)” value (Winter Barley “Suzuka”; [17]) was 100%. For the same compound, the “Winter Barley “Suzuka” phytotoxicity (%)” value (Winter Barley “Suzuka”; [18]) was 100%, the “Winter Wheat “Hereward” phytotoxicity (%)” value (Winter Wheat “Hereward”; [14]) was 30% and the “Winter Wheat “Hereward” phytotoxicity (%)” value (Winter Wheat “Hereward”; [15]) was 80%. The “Winter Wheat “Hereward” phytotoxicity (%)” value (Winter Wheat “Hereward”; [16]) was 90%, the “Winter Wheat “Hereward” phytotoxicity (%)” value (Winter Wheat “Hereward”; [17]) was 99% and the “Winter Wheat “Hereward” phytotoxicity (%)” value (Winter Wheat “Hereward”; [18]) was 98%. It also gave a pest or weed control at 250 g/ha (Avena fatua (AVEFA) [12]) of 100% and a pest or weed control at 250 g/ha (Lolium perenne (LOLPE) [13]) of 100%.
